The target in assay [1] is Delta-type opioid receptor (Mus musculus) (UniProt P32300). As to the kind of experiment: Percent inhibition against Opioid receptor delta in mouse vas deferens. It counts as functional, tissue-based. Particulars: concentration not given here.
Assay [2] deals with Mu-type opioid receptor (Cavia porcellus) (UniProt P97266). As to the kind of experiment: Percent inhibition against Opioid receptor mu in guinea pig ileum/longitudinal muscle myenteric plexus. It counts as functional, tissue-based. Particulars: concentration not given here.
Assay [3] can be described thus: In vitro inhibition of [3H]DAMGO binding to Opioid receptor mu.
Assay [4] can be described thus: In vitro inhibition of [3H]DPDPE binding to Opioid receptor delta.
A further assay addresses Mu-type opioid receptor (Cavia porcellus, UniProt P97266). Briefly: In vitro agonist activity against Opioid receptor mu in guinea pig ileum/longitudinal muscle myenteric plexus. It counts as functional, tissue-based.
Assay [5] concerns the target Delta-type opioid receptor (Mus musculus, UniProt P32300). As to the kind of experiment: In vitro agonist activity against Opioid receptor delta in mouse vas deferens. It counts as functional, tissue-based.

This note sets out measurements from ChEMBL document CHEMBL1140270, “Synthesis and biological evaluation of new biphalin analogues with non-hydrazine linkers” (Bioorg Med Chem Lett, 2005).

As usually defined, the inhibition is the percentage by which the read-out fell short of the control. One may read the IC50 as the concentration at which inhibition is half-maximal. A higher IC50 goes with a need for much substance.

Delta-type opioid receptor, sequence (P32300 whole entry): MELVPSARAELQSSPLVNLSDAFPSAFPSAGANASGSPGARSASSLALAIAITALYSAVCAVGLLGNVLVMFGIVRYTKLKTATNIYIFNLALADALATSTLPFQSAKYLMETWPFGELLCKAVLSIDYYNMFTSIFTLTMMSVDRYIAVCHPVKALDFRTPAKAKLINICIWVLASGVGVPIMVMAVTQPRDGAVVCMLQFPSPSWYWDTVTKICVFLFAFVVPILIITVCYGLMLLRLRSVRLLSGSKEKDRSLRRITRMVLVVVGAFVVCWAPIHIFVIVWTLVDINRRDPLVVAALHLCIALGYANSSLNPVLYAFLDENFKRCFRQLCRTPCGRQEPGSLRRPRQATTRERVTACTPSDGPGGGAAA
Delta-type opioid receptor (Mus musculus), sequence (P32300 whole entry): as above
Mu-type opioid receptor (Cavia porcellus), sequence (P97266 whole entry): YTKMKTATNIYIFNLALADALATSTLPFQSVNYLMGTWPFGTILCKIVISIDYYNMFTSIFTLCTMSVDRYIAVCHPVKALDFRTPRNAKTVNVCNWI
Mu-type opioid receptor, sequence (P97266 whole entry): as above

Regarding `N[C@H](Cc1ccc(O)cc1)C(=O)N[C@H](Cc1ccccc1)C(=O)N1CCN(C(=O)[C@@H](Cc2ccccc2)NC(=O)[C@H](N)Cc2ccc(O)cc2)CC1`, the inhibition was 8.1% in assay [1] and 25.5% in assay [2]. In addition, the IC50 in assay [3] is 2700 nM; in assay [4], 400 nM.
For the compound `C[C@@H](NC(=O)[C@@H](N)Cc1ccc(O)cc1)C(=O)NCC(=O)N[C@@H](Cc1ccccc1)C(=O)N1CCN(C(=O)[C@H](Cc2ccccc2)NC(=O)CNC(=O)[C@@H](C)N[C@@H](N)Cc2ccc(O)cc2)CC1`, the IC50 worked out at 2.5 nM at Mu-type opioid receptor, 0.48 nM in assay [3], 9.3 nM in assay [5] and 0.65 nM in assay [4].
With `C[C@@H](NC(=O)[C@@H](N)Cc1ccc(O)cc1)C(=O)NCC(=O)N[C@@H](Cc1ccccc1)C(=O)Nc1ccccc1NC(=O)[C@H](Cc1ccccc1)NC(=O)CNC(=O)[C@@H](C)N[C@@H](N)Cc1ccc(O)cc1`, the IC50 was determined as 40 nM at Mu-type opioid receptor, 1.93 nM in assay [3], 0.72 nM in assay [5] and 0.19 nM in assay [4].
On to `N[C@H](Cc1ccc(O)cc1)C(=O)N[C@H](Cc1ccccc1)C(=O)Nc1ccccc1NC(=O)[C@@H](Cc1ccccc1)NC(=O)[C@H](N)Cc1ccc(O)cc1`, for which the inhibition was 47% in assay [1] and 61% in assay [2]. The IC50 amounted to 3010 nM in assay [3] and 640 nM in assay [4].
As for `C[C@@H](NC(=O)[C@@H](N)Cc1ccc(O)cc1)C(=O)NCC(=O)N[C@@H](Cc1ccccc1)C(=O)NNC(=O)[C@H](Cc1ccccc1)NC(=O)CNC(=O)[C@@H](C)NC(=O)[C@@H](N)Cc1ccc(O)cc1` [BIPHALIN], the IC50 in assay [3] was 1.4 nM; in assay [4] it was 2.6 nM.
For `N[C@H](Cc1ccc(O)cc1)C(=O)N[C@H](Cc1ccccc1)C(=O)Nc1ccc(NC(=O)[C@@H](Cc2ccccc2)NC(=O)[C@H](N)Cc2ccc(O)cc2)cc1`, the values for the inhibition in assay [1] and in assay [2] were 17% and 43%, respectively. Moreover, the IC50 in assay [3] was found to be 8200 nM; in assay [4], 2400 nM.
In the case of `C[C@@H](NC(=O)[C@@H](N)Cc1ccc(O)cc1)C(=O)NCC(=O)N[C@@H](Cc1ccccc1)C(=O)Nc1ccc(NC(=O)[C@H](Cc2ccccc2)NC(=O)CNC(=O)[C@@H](C)N[C@@H](N)Cc2ccc(O)cc2)cc1`, the IC50 was 40 nM at Mu-type opioid receptor, 1.27 nM in assay [3], 35.6 nM in assay [5] and 3.17 nM in assay [4].
